Here are results for 2 substances from patent US20080194970A1 (priority 2005, published 2008).

In one series the test system is normal prostate cells. As to the kind of experiment: topical labeling of prostate cells during surgery, imaged by fibered confocal fluorescence microscopy. In kind it is in vivo. The conditions noted are these: rat during a surgical procedure. The text has this:
The marker bar indicates 30 microns.
The imaging equipment selected for use in the present invention was a Cell-vizio (purchased from Mauna Kea Technologies), an ultra-high resolution molecular imaging system that employs fibered confocal fluorescence microscopy technology. This system was specifically designed to visualize cellular structures and quantify molecular events in vivo and is composed of an autonomous Laser Scanning Unit, a range of fibered objectives made of tens of thousands of optical fibers, and a dedicated image processing and analysis software package. The system is capable of capturing images at a rate of 12 frames per second in living anesthetized animals. These images have a lateral resolution of the order of a micron, an axial resolution of 15 to 20 μm, a field of view up to 600 μm×500 μm, and can be obtained at depths up to 80 μm. The fibered probes have diameters ranging from 300 μm to 1.8 mm, allowing for access to the narrow spaces posterior to the prostate where the cavernous nerves are located.

For series [1] the following is noted: cited from earlier work.

As for acriflavine, the “in vivo labeling of normal prostate cells (FIG. 3)” value in the series on normal prostate cells is on record as “normal prostate cells labeled”.
Alexa Fluor 488: the water solubility result in series [1] is listed as “water solubility, with no organic co-solvents required in labeling reactions”. In addition, the photostability result in series [1] (compared with fluorescein) is listed as “much greater photostability than fluorescein”.
